Experimental data: article PMC10065791 (eLife, 2023)
Like-named read-outs stand apart in the source and are kept apart here.

What was measured:
[1] = system: virus pool selected to 5000 nM inhibitor; assay: TZM infection assay, inhibitor-selected resistant virus pools; type: cell-based, HIV-1; conditions: Human immunodeficiency virus 1, read-out: EC50 Viral culture (5000 nM)
Method: In addition to the sequence of the terminally selected virus, we validated that selection occurred over the entire course of the selection protocol. […] In comparing the number of mutations present in cultures using the I84V versus the I50V pathway, we noted that on average there were more mutations in the I50V viruses at the intermediate drug concentration compared to the I84V viruses (100 nM, p=0.03), and this trend continued at the higher drug concentration.
(§1) An aliquot of 3 × 10^6 CEMx174 cells was incubated at 37°C for 2–3 hr with 250 µl of a virus stock generated from the HIV-1 infectious molecular clone pNL4-3. The culture volume was then brought to 10 ml with RPMI medium. […] After 48 hr and every 48 hr after, the cells were pelleted by centrifugation and 10 ml of fresh medium and inhibitors were added. When the culture had undergone extensive cytopathic effect (CPE) indicative of viral replication, the supernatant medium and the cells were harvested separately and stored at –80°C. The virus-containing supernatant was used to start the next round of infection, and after several rounds at the initial concentration, the inhibitor concentration was increased 1.5-fold at each subsequent round of virus passage.
(§2) PI dilutions were prepared by taking 10 µM stocked and performing a fivefold serial dilution using RPMI media (final drug concentration is […]). One dilution of drug was added to each well of a 24-well plate and repeated so each virus would have a full set of dilutions. Viruses for the assay were made by seeding 3 × 10^6 CEM cells in a 24-well plate and incubating with 250 µl of virus at 37°C for 2–3 hr before bringing the culture to 10 ml with RPMI media. After 48 hr, the medium was changed and repeated every 48 hr after until the culture had undergone CPE. Infected CEM cells were collected and diluted so that 1 ml of cells could be plated in each well containing a unique drug dilution. Then 24 hr later the virus supernatant was collected from each well followed by filtering through a […] then placed in –80°C. Viruses were thawed and added to 96-well plates in triplicate. TZM-bl cells were collected and diluted to a concentration of 2 × 10^5 cells/ml, 100 µl were added on top of the pre-plated viruses. Plates were kept in 37°C, 5% CO2 in an incubator for 48 hr. After 48 hr, the cells in the plates were lysed by removing the medium, washing two times with 100 µl PBS, and then lysed with 1× lysis buffer (made from 5× Promega Firefly Lysis Buffer). Plates were frozen for at least 24 hr and then thawed for 2 hr before analyzing with Promega Firefly Luciferase Kit on a luminometer. Data was analyzed with Prism 7 to fit sigmoidal dose–response curves.

[2] = system: HIV-1 NL4-3 wild-type virus; assay: Selection for resistance in CEMx174 culture with escalating inhibitor, start wild-type virus, Primer ID deep sequencing; type: cell-based
Method: . The selection experiments were performed under two separate starting conditions: first when the starting virus was generated from the NL4-3 clone (this clone closely approximates the clade B consensus for the protease amino acid sequence and will be referred to as ‘wild type’), then again when the starting virus was a mixture of 26 isogenic viruses each with a single mutation associated with drug resistance in the NL4-3 background. […]. For technical reasons, only five of the selections starting with the mixture of mutants reached an inhibitor concentration as high as 400 nM and are reported here (Figure 2—figure supplement 3).
Resistance mutations selected in the protease coding domain during the escalating selective pressure of increasing PI concentration were examined at various timepoints using a next-generation sequencing (NGS) protocol that included Primer ID with the MiSeq platform ([Zhou et al., 2015]). We first examined the sequence of the most abundant variant in each of the two selection schemes present at the highest inhibitor concentration reached (Figure 2A). For those selections that reached 5 μM, 8–14 mutations were present in the most abundant variant. Typically the next two most abundant variants in the population differed by a single amino acid, and on average the three most abundant variants in the 5 μM cultures accounted for 88% of the total viral population (Figure 2—source data 1). Evolution of resistance followed two pathways, one based on I50V and one based on I84V. In three cultures, V2wt, V5wt, and V2mut (which reached either 4 or 5 μM final drug concentration; V2wt indicates the virus pool selected with UMASS-2 starting with wild-type virus), these two mutations, I84V and I50V, became linked on the same genome (Figure 2A) showing they are not mutually exclusive; […].
as §1
We used the PID protocol to prepare MiSeq PID libraries with multiplexed primers. Viral RNA was extracted from plasma samples using the QIAamp viral RNA mini kit (QIAGEN, Hilden, Germany). Complementary DNA (cDNA) was synthesized using a cDNA primer mixture targeting protease (PR) with a block of random nucleotides in each cDNA primer serving as the PID, and SuperScript III RT (Thermo Fisher). After two rounds of bead purification of the cDNA, we amplified the cDNA using a mixture of a forward primer that targeted the upstream coding region, followed by a second round of PCR to incorporate the Illumina adaptor sequences. Gel-purified libraries were pooled and sequenced using the MiSeq 300 base paired-end sequencing protocol (Illumina). The sequencing covered the HIV-1 PR region (HXB2 2648-2914, 3001-3257).
We used the Illumina bcl2fastq pipeline for the initial processing and constructed template consensus sequences (TCSs) with TCS pipeline version 1.33 (https://github.com/SwanstromLab/PID) ([Zhou, 2019]). We then aligned TCSs to an HXB2 reference to remove sequences not at the targeted region or that had large deletions. We used the Entropy tool at LANL (https://www.hiv.lanl.gov/content/sequence/ENTROPY/entropy.html) to calculate entropy for each specimen. The sequencing data is available at NIH Sequencing Read Archive (SRA) under BioProject ID PRJNA853351.

wild-type virus NL4-3 = assay: TZM infection assay (cell culture-based viral inhibition), wild-type virus; parameters: species or system HIV-1; conditions: Human immunodeficiency virus 1, NL43; wild-type NL4-3 virus; concentration at time of virus production reducing infectivity by 50%; TZM-bl readout
Method: as §2

[3] = target: T1, I50V/A71V mutant protease (Human immunodeficiency virus type 1 group M subtype B, UniProt P12497, A559V/I538V/Q495K); parameters: method as in Lockbaum et al. (ACS Infect Dis. 2019 Feb 8; 5 (2): 316–325); conditions: I50V/A71V drug-resistant protease variant; previously reported; ref Lockbaum et al. (ACS Infect Dis. 2019 Feb 8; 5 (2): 316–325); cited from earlier work
T1 construct: the gene encoding the desired HIV-1 protease was subcloned into the heat-inducible pXC35 expression vector; made in house

I84V mutant protease [4] = target: T2, I84V mutant protease (Human immunodeficiency virus type 1 group M subtype B, UniProt P12497, I572V/Q495K); parameters: method as in Lockbaum et al. (ACS Infect Dis. 2019 Feb 8; 5 (2): 316–325); conditions: I84V drug-resistant protease variant; previously reported; ref Lockbaum et al. (ACS Infect Dis. 2019 Feb 8; 5 (2): 316–325); cited from earlier work
T2 construct: the gene encoding the desired HIV-1 protease was subcloned into the heat-inducible pXC35 expression vector; made in house

wild-type NL4-3 protease [5] = target: T3, wild-type NL4-3 protease (Human immunodeficiency virus type 1 group M subtype B, UniProt P12497, Q495K); parameters: method as in Lockbaum et al. (ACS Infect Dis. 2019 Feb 8; 5 (2): 316–325); conditions: previously reported, ref Lockbaum et al. (ACS Infect Dis. 2019 Feb 8, 5 (2): 316–325), read-out: Ki WT; cited from earlier work
T3 construct: the gene encoding the desired HIV-1 protease was subcloned into the heat-inducible pXC35 expression vector; made in house

wild-type NL4-3 protease [6] = target: T3, wild-type NL4-3 protease; assay: Ki assay (FRET enzyme inhibition), wild-type protease; type: biochemical, HIV-1; conditions: limit of detection 5 pM, read-out: Ki WT
Method: (§3) The highly mutated, resistant, protease variant genes were purchased on a pET11a plasmid with codon optimization for protein expression in Escherichia coli (Genewiz). A Q7K mutation was included to prevent autoproteolysis ([Rosé et al., 1993]). The expression, isolation, and purification of WT and mutant HIV-1 proteases used for enzymatic assays were carried out as previously described ([Henes et al., 2019]; [King et al., 2002]; [Özen et al., 2014]). Briefly, the gene encoding the desired HIV-1 protease was subcloned into the heat-inducible pXC35 expression vector (ATCC) and transformed into E. coli TAP-106 cells. Cells grown in 6 l of Terrific Broth were lysed with a cell disruptor twice, and the protein was purified from inclusion bodies ([Hui et al., 1993]). Inclusion bodies, isolated as a pellet after centrifugation, were dissolved in 50% acetic acid followed by another round of centrifugation at 19,000 rpm for 30 min to remove insoluble impurities. Size-exclusion chromatography was carried out on a 2.1 l Sephadex G-75 Superfine (Sigma Chemical) column equilibrated with 50% acetic acid to separate high molecular weight proteins from the desired protease. Pure fractions of HIV-1 protease were refolded using a tenfold dilution of refolding buffer (0.05 M sodium acetate at pH 5.5, 5% ethylene glycol, 10% glycerol, and 5 µM DTT). Folded protein was concentrated to 0.5–3 mg/ml and stored. The stored protease was used in KM and Ki assays.
(§4) Enzyme inhibition constants (Ki values) were determined as previously described ([Henes et al., 2019]; [Lockbaum et al., 2019]; [Matayoshi et al., 1990]; [Windsor and Raines, 2015]). Briefly, in a 96-well plate, inhibitors were serially diluted down from […] depending on protease resistance. All samples were incubated with 5 nM protein for 1 hr. A 10-amino acid substrate containing an optimized protease cleavage site ([Windsor and Raines, 2015]), purchased from Bachem, with an EDANS/DABCYL FRET pair was dissolved in 4% DMSO at 120 µM. Using a PerkinElmer Envision plate reader, 5 µl of the 120 µM substrate were added to the 96-well plate to a final concentration of 10 µM. […] Data was analyzed with Prism7.

[7] = target: T1, I50V/A71V mutant protease; assay: Ki assay (FRET enzyme inhibition), I50V/A71V protease; type: biochemical, HIV-1; conditions: I50V/A71V drug-resistant protease variant
Method: as §3, §4

I84V mutant protease [8] = target: T2, I84V mutant protease; assay: Ki assay (FRET enzyme inhibition), I84V protease; type: biochemical, HIV-1; conditions: I84V drug-resistant protease variant
Method: as §3, §4

CC(C)CN(C[C@@H](O)[C@H](Cc1ccccc1)NC(=O)O[C@H]1CO[C@H]2OCC[C@H]21)S(=O)(=O)c1ccc(N)cc1 [DRV, Darunavir, reference compound]
EC50 [1]: > 100000 nM
Abundance of variant at the last time point ([2]; variant 10I/32I/41I/46I/47V/82I/84V/85V, passage 43, [PI] 1350 nM): 10.3%
Abundance of variant at the last time point ([2]; variant 32I/41I/46I/47V/82I/84V/85V, passage 43, [PI] 1350 nM): 62.8%
Abundance of variant at the last time point ([2]; variant 32I/41I/46I/47V/82L/84V/85V, passage 43, [PI] 1350 nM): 10.1%
EC50 (wild-type virus NL4-3): 7.7 ± 1.6 nM

CC[C@H](C)CN(C[C@@H](O)[C@H](Cc1ccccc1)NC(=O)O[C@H]1CO[C@H]2OCC[C@H]21)S(=O)(=O)c1ccc(N)cc1 [UMASS-1]
Ki [3]: 0.11 ± 0.0088 nM
Ki (I84V mutant protease [4]): 0.0261 ± 0.0037 nM
Abundance of variant at the last time point ([2]; variant 10I/16E/32I/33F/46I/54L/71V/76V/82I/84V, passage 75, [PI] 5000 nM): 55.4%
Abundance of variant at the last time point ([2]; variant 10I/16E/32I/33F/46I/54L/71V/76V/82I/84V/91S, passage 75, [PI] 5000 nM): 6.2%
Abundance of variant at the last time point ([2]; variant 10I/32I/33F/46I/54L/71V/76V/82I/84V, passage 75, [PI] 5000 nM): 21.9%
Ki (wild-type NL4-3 protease [5]): < 0.005 nM
EC50 (wild-type virus NL4-3): 5.9 ± 1 nM

CC[C@H](C)CN(C[C@@H](O)[C@H](Cc1ccccc1)NC(=O)O[C@H]1CO[C@H]2OCC[C@H]21)S(=O)(=O)c1ccc(OC)cc1 [UMASS-2]
Ki (wild-type NL4-3 protease [6]): < 0.005 nM
Abundance of variant at the last time point ([2]; variant 10F/33F/46I/47V/50V/71V/82I/84V, passage 82, [PI] 5000 nM): 37.5%
Abundance of variant at the last time point ([2]; variant 28S/32I/33F/46I/47V/50V/71V/82I/84V, passage 82, [PI] 5000 nM): 33.5%
Abundance of variant at the last time point ([2]; variant 33F/46I/47V/50V/71V/82I/84V, passage 82, [PI] 5000 nM): 4.2%
Ki [7]: 0.015 ± 0.0027 nM
EC50 (wild-type virus NL4-3): 2.4 ± 0.3 nM
Ki (I84V mutant protease [8]): < 0.005 nM

CCC(CC)CN(C[C@@H](O)[C@H](Cc1ccccc1)NC(=O)O[C@H]1CO[C@H]2OCC[C@H]21)S(=O)(=O)c1ccc(CO)cc1 [UMASS-8]
Ki (wild-type NL4-3 protease [6]): < 0.005 nM
Abundance of variant at the last time point ([2]; variant 10F/12K/33F/46I/47V/50V/53L/54L/63P/71V/82I/85V, passage 67, [PI] 5000 nM): 55.4%
Abundance of variant at the last time point ([2]; variant 10F/12K/33F/46I/47V/50V/53L/54L/63P/71V/82I/85V/87K, passage 67, [PI] 5000 nM): 0.1%
Abundance of variant at the last time point ([2]; variant 10F/33F/46I/47V/50V/53L/54L/63P/71V/82I/85V, passage 67, [PI] 5000 nM): 41.9%
Ki [7]: 0.0554 ± 0.004 nM
EC50 (wild-type virus NL4-3): 4.2 ± 0.9 nM
Ki (I84V mutant protease [8]): < 0.005 nM

CCC(CC)CN(C[C@@H](O)[C@H](Cc1ccccc1)NC(=O)O[C@H]1CO[C@H]2OCC[C@H]21)S(=O)(=O)c1ccc2ncsc2c1 [UMASS-10]
Ki (wild-type NL4-3 protease [6]): < 0.005 nM
Abundance of variant at the last time point ([2]; variant 10F/13V/33F/43T/46I/47V/50V/54L/71V/77I/82L/88S, passage 77, [PI] 5000 nM): 1.6%
Abundance of variant at the last time point ([2]; variant 10F/13V/33F/43T/46I/47V/50V/54L/71V/82L/87K/88S, passage 77, [PI] 5000 nM): 0.2%
Abundance of variant at the last time point ([2]; variant 10F/13V/33F/43T/46I/47V/50V/54L/71V/82L/88S, passage 77, [PI] 5000 nM): 91.2%
Ki [7]: 0.0058 ± 0.0011 nM
EC50 (wild-type virus NL4-3): 4.1 ± 0.9 nM
Ki (I84V mutant protease [8]): 0.0143 ± 0.0093 nM
